The values below come from patent US11987588B2, “Modulators of the beta-3 adrenergic receptor useful for the treatment or prevention of heart failure and disorders related thereto” (Arena Pharmaceuticals, Inc., priority 2017, dated 2024).

SMILES strings stand for the structures. “Also recorded” adds a separate entry of the source.

Assay [1] addresses Beta-3 Adrenergic Receptor (Homo sapiens (Human), UniProt P13945). Put plainly: Homogeneous Time-Resolved Fluorescence (HTRF) cAMP antagonist assay, IC50 determination. The assay is classed as cell-based. The following applies: CHO-K1 cells stably expressing recombinant receptor, isoproterenol at EC90. An outline of the steps:
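Antagonist mode: isoproterenol at its predetermined EC90 added after compound to recombinant CHO-K1 cells in IBMX-containing PBS, 1 h, room temperature. Compounds tested as 5-fold, 10-point dilutions, top final typically 10 or 100 μM. HTRF signal converted to cAMP via standard curve, giving IC50.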

Assay [2] concerns chronic heart failure (CHF) rats. Put plainly: Chronic heart failure (CHF) rat model, attenuation of negative contractile effects of BRL 37344 on left ventricular pressure. The assay is classed as in vivo. The following applies: 10 min infusion at 3, 10, 30 mg/kg/hr, then bolus of BRL (3 μg/kg). How it is done: Beta-3 adrenergic receptor antagonists can be evaluated for effects on cardiac contractility in chronic heart failure (CHF) rats. Beta-3 adrenergic receptor expression is weak in the normal rat heart and higher in the rat heart with CHF. Because beta-3 adrenergic receptor expression is higher in the rat heart with CHF, a compound of the present invention was evaluated for the ability to attenuate the negative contractile effects of the beta-3 adrenergic receptor agonist BRL 37344 (BRL) compared to baseline in this CHF rat model.
Myocardial infarction was induced in male Sprague-Dawley rats by performing left coronary descending artery ligation. […]
Heart failure was evaluated weekly following surgery by testing impaired left ventricular function by echocardiography. Left ventricle end-diastolic volume (LVEDV) and left ventricle end-systolic volume (LVESV) were measured for at least three consecutive cardiac cycles in long-axis view images. Ejection Fraction (EF %) was calculated using the following formula: EF %=(LVEDV-LVESV)/LVEDV. […]
A direct determination of left ventricular function was used for all rats to evaluate the effects of compounds on left ventricular contractility. […] Left ventricular pressure (LVP) was monitored by LabChart with POWERLAB® Data Acquisition System (ADInstruments, Sydney, Australia). […]

Chain of Beta-3 Adrenergic Receptor (P13945 whole entry, species assumed): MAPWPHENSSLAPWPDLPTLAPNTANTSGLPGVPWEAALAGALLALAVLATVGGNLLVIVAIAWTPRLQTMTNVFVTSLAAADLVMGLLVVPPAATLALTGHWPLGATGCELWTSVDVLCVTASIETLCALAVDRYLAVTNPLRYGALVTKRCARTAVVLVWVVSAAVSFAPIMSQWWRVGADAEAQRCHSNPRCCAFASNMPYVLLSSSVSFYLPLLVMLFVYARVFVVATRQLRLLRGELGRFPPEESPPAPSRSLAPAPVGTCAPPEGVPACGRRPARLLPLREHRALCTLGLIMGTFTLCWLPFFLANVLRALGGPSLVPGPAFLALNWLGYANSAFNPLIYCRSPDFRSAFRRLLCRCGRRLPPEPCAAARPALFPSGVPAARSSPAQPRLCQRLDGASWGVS

For the molecule `CNS(=O)(=O)c1cccc(OC[C@@H](O)CN[C@H]2COC3(CCN(S(=O)(=O)c4cnc5cc[nH]c5c4)CC3)C2)c1` [Compound 505, 3-((S)-3-((R)-8-(1H-pyrrolo[3,2-b]pyridin-6-ylsulfonyl)-1-oxa-8-azaspiro[4.5]decan-3-ylamino)-2-hydroxypropoxy)-N-methylbenzenesulfonamide], in assay [1], the IC50 amounted to 8.46 nM. Besides, the “left ventricular pressure (LVP)” value in assay [2] is recorded as “dose-dependent improvement; also recorded: inhibition of negative effects of BRL on left ventricular pressure (LVP)”. With `CNS(=O)(=O)c1cccc(OC[C@@H](O)CN[C@H]2COC3(CCN(S(=O)(=O)c4ccc5c(n4)OCC(=O)N5)CC3)C2)c1` [Compound 443, 3-((S)-2-hydroxy-3-((R)-8-(2-oxo-2,3-dihydro-1H-pyrido[2,3-b][1,4]oxazin-6-ylsulfonyl)-1-oxa-8-azaspiro[4.5]decan-3-ylamino)propoxy)-N-methylbenzenesulfonamide], the IC50 in assay [1] amounted to 36.9 nM. The same measure, in the same setting: to `CNS(=O)(=O)c1cccc(OC[C@@H](O)CNC2COC3(CCN(S(=O)(=O)c4ccc(Br)c(C)c4)CC3)C2)c1` (stereo partly drawn) [Compound 159, 3-((2S)-3-(8-(4-bromo-3-methylphenylsulfonyl)-1-oxa-8-azaspiro[4.5]decan-3-ylamino)-2-hydroxypropoxy)-N-methylbenzenesulfonamide] belongs 4.78 nM; to `CNS(=O)(=O)c1cccc(OC[C@@H](O)CNC2COC3(CCN(S(=O)(=O)c4cc(F)ccc4F)CC3)C2)c1` (stereo partly drawn) [Compound 205, 3-((2S)-3-(8-(2,5-difluorophenylsulfonyl)-1-oxa-8-azaspiro[4.5]decan-3-ylamino)-2-hydroxypropoxy)-N-methylbenzenesulfonamide], 14 nM; to `CNS(=O)(=O)c1cccc(OC[C@@H](O)CN[C@H]2COC3(CCN(S(=O)(=O)c4cnc5c(c4)OCCO5)CC3)C2)c1` [Compound 480, 3-((S)-3-((R)-8-(2,3-dihydro-[1,4]dioxino[2,3-b]pyridin-7-ylsulfonyl)-1-oxa-8-azaspiro[4.5]decan-3-ylamino)-2-hydroxypropoxy)-N-methylbenzenesulfonamide], 75.3 nM. On the same count and under the same terms, under `CNS(=O)(=O)c1cccc(OC[C@@H](O)CN[C@H]2COC3(CCN(S(=O)(=O)c4cnc5[nH]c(=O)[nH]c5c4)CC3)C2)c1` [Compound 477, 3-((S)-2-hydroxy-3-((R)-8-(2-oxo-2,3-dihydro-1H-imidazo[4,5-b]pyridin-6-ylsulfonyl)-1-oxa-8-azaspiro[4.5]decan-3-ylamino)propoxy)-N-methylbenzenesulfonamide] stands 52.3 nM.

Consider `CNS(=O)(=O)c1cccc(OC[C@@H](O)CNC2COC3(CCN(S(=O)(=O)c4cc(OC)ccc4C#N)CC3)C2)c1` (stereo partly drawn) [Compound 263, 3-((2S)-3-(8-(2-cyano-5-methoxyphenylsulfonyl)-1-oxa-8-azaspiro[4.5]decan-3-ylamino)-2-hydroxypropoxy)-N-methylbenzenesulfonamide], for which the IC50 in assay [1] was 30.8 nM. Still for that read-out and setting: to `CNS(=O)(=O)c1cccc(OC[C@@H](O)CN[C@H]2COC3(CCN(S(=O)(=O)c4cnc5ccccc5c4O)CC3)C2)c1` [Compound 541, 3-((S)-2-hydroxy-3-((R)-8-(4-hydroxyquinolin-3-ylsulfonyl)-1-oxa-8-azaspiro[4.5]decan-3-ylamino)propoxy)-N-methylbenzenesulfonamide] belongs 13.4 nM; to `CNS(=O)(=O)c1cccc(OC[C@@H](O)CNC2COC3(CCN(S(=O)(=O)c4ccc(NCCOC)nc4)CC3)C2)c1` (stereo partly drawn) [Compound 426, 3-((2S)-2-hydroxy-3-(8-(6-(2-methoxyethylamino)pyridin-3-ylsulfonyl)-1-oxa-8-azaspiro[4.5]decan-3-ylamino)propoxy)-N-methylbenzenesulfonamide], 98.6 nM; to `CNS(=O)(=O)c1cccc(OC[C@@H](O)CNC2COC3(CCN(S(=O)(=O)c4ccc(Cl)cc4)CC3)C2)c1` (stereo partly drawn) [Compound 17, 3-((2S)-3-(8-(4-chlorophenylsulfonyl)-1-oxa-8-azaspiro[4.5]decan-3-ylamino)-2-hydroxypropoxy)-N-methylbenzenesulfonamide], 15.3 nM. On the same count and under the same terms, under `CNS(=O)(=O)c1cccc(OC[C@@H](O)CNC2COC3(CCN(S(=O)(=O)c4ccccc4-c4ccc(CN)cc4)CC3)C2)c1` (stereo partly drawn) [Compound 381, 3-((2S)-3-(8-(4′-(aminomethyl)biphenyl-2-ylsulfonyl)-1-oxa-8-azaspiro[4.5]decan-3-ylamino)-2-hydroxypropoxy)-N-methylbenzenesulfonamide] stands 357 nM; under `CNS(=O)(=O)c1cccc(OC[C@@H](O)CNC2COC3(CCN(S(=O)(=O)c4ccc(N5CCNCC5)nc4)CC3)C2)c1` (stereo partly drawn) [Compound 430, 3-((2S)-2-hydroxy-3-(8-(6-(piperazin-1-yl)pyridin-3-ylsulfonyl)-1-oxa-8-azaspiro[4.5]decan-3-ylamino)propoxy)-N-methylbenzenesulfonamide], 93.4 nM.
